Experimental data taken from paper PMC8213057, “Targeting ALK2: An Open Science Approach to Developing Therapeutics for the Treatment of Diffuse Intrinsic Pontine Glioma” (Journal of Medicinal Chemistry, 2020).

What was measured:
GCK/MAP4K2 = biological target: T1, GCK/MAP4K2 (Homo sapiens, UniProt Q12851); conditions: 1 μM; Run 1, Run 2
T1 sequence (Q12851 1-820): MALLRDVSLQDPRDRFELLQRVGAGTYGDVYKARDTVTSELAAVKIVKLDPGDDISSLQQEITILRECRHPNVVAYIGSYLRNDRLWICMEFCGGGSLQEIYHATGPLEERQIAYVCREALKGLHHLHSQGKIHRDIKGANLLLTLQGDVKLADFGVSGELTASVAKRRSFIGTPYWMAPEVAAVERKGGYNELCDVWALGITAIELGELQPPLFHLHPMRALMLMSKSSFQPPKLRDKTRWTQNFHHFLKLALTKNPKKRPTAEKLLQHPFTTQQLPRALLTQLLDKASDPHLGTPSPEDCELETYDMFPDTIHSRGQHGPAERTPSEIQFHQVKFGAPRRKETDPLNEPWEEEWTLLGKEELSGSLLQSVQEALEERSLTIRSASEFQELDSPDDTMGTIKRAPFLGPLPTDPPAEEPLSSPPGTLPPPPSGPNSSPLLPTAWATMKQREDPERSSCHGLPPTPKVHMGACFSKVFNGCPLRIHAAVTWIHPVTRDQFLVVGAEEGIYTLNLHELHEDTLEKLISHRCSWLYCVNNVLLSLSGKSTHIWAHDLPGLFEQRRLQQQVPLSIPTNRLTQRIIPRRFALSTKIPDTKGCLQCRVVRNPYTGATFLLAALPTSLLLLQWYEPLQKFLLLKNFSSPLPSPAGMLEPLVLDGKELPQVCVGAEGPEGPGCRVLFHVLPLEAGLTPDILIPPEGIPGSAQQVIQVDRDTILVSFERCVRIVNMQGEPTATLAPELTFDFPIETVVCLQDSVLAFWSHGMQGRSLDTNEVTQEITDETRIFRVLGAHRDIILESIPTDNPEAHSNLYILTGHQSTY

MEK5 = biological target: T2, MEK5 (Homo sapiens, UniProt Q13163); test: biochemical; conditions: read-out: % enzyme activity, 1 μM; Run 1, Run 2
T2 sequence (Q13163 1-448): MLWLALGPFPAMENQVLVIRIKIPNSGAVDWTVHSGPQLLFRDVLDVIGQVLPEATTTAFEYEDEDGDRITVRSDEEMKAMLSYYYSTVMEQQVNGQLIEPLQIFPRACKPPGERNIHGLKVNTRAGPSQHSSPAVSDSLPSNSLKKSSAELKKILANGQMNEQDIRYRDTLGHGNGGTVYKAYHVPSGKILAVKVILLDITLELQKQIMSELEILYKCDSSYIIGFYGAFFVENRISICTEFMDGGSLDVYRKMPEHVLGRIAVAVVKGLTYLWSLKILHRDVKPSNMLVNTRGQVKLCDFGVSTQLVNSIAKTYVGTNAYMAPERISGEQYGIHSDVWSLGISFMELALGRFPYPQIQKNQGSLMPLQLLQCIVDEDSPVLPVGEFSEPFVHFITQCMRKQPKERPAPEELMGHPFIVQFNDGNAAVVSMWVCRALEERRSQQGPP

TSSK2 = biological target: T3, TSSK2 (Homo sapiens, UniProt Q96PF2); conditions: 1 μM; Run 1, Run 2
T3 sequence (Q96PF2 1-358): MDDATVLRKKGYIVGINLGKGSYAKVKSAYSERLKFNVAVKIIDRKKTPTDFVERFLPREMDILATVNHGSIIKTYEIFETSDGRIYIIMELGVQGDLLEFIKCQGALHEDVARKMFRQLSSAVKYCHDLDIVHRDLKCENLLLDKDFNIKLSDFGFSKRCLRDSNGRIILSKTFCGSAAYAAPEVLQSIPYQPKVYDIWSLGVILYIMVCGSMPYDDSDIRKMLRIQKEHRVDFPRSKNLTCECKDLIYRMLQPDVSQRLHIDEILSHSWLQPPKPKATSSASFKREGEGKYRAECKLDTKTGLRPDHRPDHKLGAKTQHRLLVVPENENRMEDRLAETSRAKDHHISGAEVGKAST

ERK1 = ERK1 (Homo sapiens, UniProt P27361); test: biochemical; conditions: read-out: % enzyme activity, 1 μM; Run 1, Run 2
LATS1 = biological target: T4, LATS1 (Homo sapiens, UniProt O95835); conditions: 1 μM; Run 1, Run 2
T4 sequence (O95835 1-1130): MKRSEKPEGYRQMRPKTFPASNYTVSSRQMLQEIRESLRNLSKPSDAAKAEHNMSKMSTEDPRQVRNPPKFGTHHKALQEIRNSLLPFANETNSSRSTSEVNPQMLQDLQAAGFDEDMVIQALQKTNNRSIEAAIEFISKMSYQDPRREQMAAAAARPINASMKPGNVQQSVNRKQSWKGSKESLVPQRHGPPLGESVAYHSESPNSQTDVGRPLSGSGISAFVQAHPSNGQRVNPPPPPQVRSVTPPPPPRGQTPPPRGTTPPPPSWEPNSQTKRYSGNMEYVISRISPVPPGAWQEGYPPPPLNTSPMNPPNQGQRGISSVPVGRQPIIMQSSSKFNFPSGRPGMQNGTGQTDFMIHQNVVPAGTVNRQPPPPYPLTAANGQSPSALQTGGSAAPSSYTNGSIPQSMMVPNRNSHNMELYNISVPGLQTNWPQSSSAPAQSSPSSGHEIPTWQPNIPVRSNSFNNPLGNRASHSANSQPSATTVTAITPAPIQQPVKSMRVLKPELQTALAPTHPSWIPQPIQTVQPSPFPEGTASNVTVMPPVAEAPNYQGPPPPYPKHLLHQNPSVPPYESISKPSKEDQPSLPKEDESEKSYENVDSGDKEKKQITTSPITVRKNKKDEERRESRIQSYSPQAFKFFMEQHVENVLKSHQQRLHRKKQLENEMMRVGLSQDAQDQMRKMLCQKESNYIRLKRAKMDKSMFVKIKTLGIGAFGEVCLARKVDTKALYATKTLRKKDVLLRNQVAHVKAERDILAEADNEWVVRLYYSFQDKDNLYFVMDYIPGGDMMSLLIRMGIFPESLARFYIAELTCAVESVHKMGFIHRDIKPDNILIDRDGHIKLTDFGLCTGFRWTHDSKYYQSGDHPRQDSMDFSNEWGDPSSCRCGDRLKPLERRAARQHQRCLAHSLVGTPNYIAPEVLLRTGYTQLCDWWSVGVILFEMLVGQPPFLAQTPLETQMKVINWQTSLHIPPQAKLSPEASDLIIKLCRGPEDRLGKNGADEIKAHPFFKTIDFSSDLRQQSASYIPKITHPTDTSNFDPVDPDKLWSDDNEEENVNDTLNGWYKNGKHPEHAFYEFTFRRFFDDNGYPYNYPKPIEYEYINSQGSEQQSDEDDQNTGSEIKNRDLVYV

MRCKb/CDC42BPB = MRCKb/CDC42BPB (Homo sapiens, UniProt Q9Y5S2); test: biochemical; conditions: read-out: % enzyme activity, 1 μM; Run 1, Run 2
MRCKb/CDC42BPB, sequence (Q9Y5S2 whole entry): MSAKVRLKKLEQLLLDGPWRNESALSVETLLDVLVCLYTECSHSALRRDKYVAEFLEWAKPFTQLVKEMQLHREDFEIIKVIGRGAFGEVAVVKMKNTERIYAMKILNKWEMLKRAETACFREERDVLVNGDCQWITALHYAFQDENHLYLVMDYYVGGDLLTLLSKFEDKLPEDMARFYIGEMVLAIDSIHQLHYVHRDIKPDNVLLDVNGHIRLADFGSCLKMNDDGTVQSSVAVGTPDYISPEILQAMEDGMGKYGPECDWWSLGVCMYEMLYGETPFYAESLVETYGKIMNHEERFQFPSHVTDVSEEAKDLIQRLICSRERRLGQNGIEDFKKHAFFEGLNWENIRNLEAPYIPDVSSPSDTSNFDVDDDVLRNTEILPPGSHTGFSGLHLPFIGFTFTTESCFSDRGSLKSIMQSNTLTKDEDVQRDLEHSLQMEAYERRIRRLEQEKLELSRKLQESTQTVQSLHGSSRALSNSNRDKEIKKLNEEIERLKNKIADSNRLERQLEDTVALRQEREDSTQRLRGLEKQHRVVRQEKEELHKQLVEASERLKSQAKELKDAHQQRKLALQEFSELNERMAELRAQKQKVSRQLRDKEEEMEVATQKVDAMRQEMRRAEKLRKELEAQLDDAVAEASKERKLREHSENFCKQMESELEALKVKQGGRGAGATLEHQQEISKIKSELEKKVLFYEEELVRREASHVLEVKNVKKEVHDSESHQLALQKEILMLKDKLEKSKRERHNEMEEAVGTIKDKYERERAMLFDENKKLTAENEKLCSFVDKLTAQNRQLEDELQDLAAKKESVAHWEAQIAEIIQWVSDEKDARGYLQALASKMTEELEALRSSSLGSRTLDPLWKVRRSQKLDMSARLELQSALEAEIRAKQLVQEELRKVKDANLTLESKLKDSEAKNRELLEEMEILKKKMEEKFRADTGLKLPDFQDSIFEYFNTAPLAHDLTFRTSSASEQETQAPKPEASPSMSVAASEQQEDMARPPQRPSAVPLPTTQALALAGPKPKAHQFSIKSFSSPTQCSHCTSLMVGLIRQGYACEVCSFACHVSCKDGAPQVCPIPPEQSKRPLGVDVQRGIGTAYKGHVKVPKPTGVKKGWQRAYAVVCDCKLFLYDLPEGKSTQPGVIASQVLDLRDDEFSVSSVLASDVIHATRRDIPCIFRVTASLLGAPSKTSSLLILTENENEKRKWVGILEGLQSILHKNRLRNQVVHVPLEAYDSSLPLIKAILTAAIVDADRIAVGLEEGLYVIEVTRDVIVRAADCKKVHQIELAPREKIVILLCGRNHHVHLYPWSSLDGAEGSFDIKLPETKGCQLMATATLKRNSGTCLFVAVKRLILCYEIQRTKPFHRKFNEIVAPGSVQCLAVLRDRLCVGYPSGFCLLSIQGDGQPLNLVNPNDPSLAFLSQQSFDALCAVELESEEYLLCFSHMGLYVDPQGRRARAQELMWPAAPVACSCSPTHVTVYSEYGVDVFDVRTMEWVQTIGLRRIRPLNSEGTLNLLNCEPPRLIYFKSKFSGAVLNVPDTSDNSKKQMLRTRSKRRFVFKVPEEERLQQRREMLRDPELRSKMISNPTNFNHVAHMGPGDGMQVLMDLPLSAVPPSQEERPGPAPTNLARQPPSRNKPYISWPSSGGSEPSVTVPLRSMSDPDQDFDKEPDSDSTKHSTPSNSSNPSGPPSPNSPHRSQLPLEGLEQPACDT

ERK1, sequence (P27361 whole entry): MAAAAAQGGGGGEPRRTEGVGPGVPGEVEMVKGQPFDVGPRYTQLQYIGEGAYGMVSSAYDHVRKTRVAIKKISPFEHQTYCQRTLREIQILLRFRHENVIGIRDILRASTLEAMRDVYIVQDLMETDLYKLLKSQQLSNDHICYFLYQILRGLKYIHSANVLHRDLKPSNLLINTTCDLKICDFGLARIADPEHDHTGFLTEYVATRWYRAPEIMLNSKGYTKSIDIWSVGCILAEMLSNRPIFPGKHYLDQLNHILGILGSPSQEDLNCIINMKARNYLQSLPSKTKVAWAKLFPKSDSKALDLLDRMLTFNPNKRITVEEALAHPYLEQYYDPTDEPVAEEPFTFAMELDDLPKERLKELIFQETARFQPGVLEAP

SMILES	% enzyme activity (GCK/MAP4K2)	remaining activity at 1 µM (MEK5)	% enzyme activity (TSSK2)	remaining activity at 1 µM (ERK1)	% enzyme activity (LATS1)	remaining activity at 1 µM (MRCKb/CDC42BPB)
COc1cc(-c2cncc(-c3ccc(N4CCN(C)CC4)cc3)c2C)cc(F)c1C(N)=O [Compound 26a, 2-Fluoro-6-methoxy-4-(4-methyl-5-(4-(4-methylpiperazin-1-yl)phenyl)pyridin-3-yl)benzamide]	59.95%	86.9%	98.77%	97.3%	97.31%	94.6%
COc1cc(-c2cncc(-c3ccc(N4C[C@@H](C)N(C)[C@@H](C)C4)cc3)c2C)cc(F)c1C(N)=O [Compound 26c, 2-Fluoro-6-methoxy-4-(4-methyl-5-(4-((3R,5S)-3,4,5-trimethylpiperazin-1-yl)phenyl)pyridin-3-yl)benzamide]	74.91%	93.2%	99.71%	95.3%	100.53%	99.7%
